This is an account of results in US20220298135A1, “5-HETEROARYL-PYRIDIN-2-AMINE COMPOUNDS AS NEUROPEPTIDE FF RECEPTOR ANTAGONISTS” (Domain Therapeutics, priority 2019, published 2022).

The target of data set [1] is T1, human NPFFR1 (hNPFFR1) receptor (Homo sapiens, UniProt Q9GZQ6).
T1 construct: expressed in transfected cells; host or cells: HEK-293 T cells, transient co-transfection with polyethylenimine
As to the kind of experiment: Human NPFFR1 evaluation using BRET biosensors (antagonist IC50). Format: cell-based. The following applies: hNPFFR1 transiently over-expressed in HEK-293 T cells; BRET signal; stimulation by EC80 RFRP-3. The method, boiled down: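 HEK-293T cells co-transfected with receptor, GαoB and Gi-effector BRET biosensor pair, assayed 48 h later. Compound 10 min, then EC80 RFRP-3 with 10 min luminescence read; IC50 from 20-concentration variable-slope fit, duplicate, two independent experiments.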
(In general: In BRET a luciferase serves as donor, and the signal depends on an acceptor being close.)

T1 sequence (Q9GZQ6 whole entry): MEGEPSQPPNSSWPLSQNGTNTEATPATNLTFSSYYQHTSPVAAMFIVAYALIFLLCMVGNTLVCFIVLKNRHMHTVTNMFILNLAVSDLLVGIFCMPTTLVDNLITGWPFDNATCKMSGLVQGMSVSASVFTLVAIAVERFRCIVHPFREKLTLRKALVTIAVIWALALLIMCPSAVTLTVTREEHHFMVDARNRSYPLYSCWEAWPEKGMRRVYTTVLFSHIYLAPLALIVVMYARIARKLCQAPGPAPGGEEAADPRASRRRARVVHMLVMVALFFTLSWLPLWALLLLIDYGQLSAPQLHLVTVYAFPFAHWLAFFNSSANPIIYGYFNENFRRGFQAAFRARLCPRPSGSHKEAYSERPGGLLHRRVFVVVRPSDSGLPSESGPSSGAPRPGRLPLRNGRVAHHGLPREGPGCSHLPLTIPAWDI

As usually defined, the IC50 is the concentration that inhibits the measured activity by half. High values mean a need for much substance, low ones inhibition by little substance. As a reminder, the melting point is the temperature of the solid-liquid transition. `CCc1nc(N)ccc1-c1cccc2ccc(N3CCOCC3)nc12.Cl` [Example 129, 6-ethyl-5-(2-morpholinoquinolin-8-yl)pyridin-2-amine] showed a melting point of 100 to 150 °C. Also, in data set [1], the IC50 is less than 100 nM.

As for `Cl.Nc1ccc(-c2cccc3c2sc2ccccc23)c(N)n1` [Example 39, 3-Dibenzothiophen-4-ylpyridine-2,6-diamine], the melting point was in the range of 165 to 170 °C. In data set [1], the IC50 was less than 100 nM.

For the compound `Cl.Nc1ccc(-c2c(F)ccc3cccnc23)c(CCC(F)(F)F)n1` [Example 69, 5-(7-fluoroquinolin-8-yl)-6-(3,3,3-trifluoropropyl)pyridin-2-amine], the melting point is 85 to 145 °C. In addition, the IC50 in data set [1] was 100 to 1000 nM.

The compound `CCc1nc(N)ccc1-c1cccn2ccnc12.Cl` [Example 102, 6-ethyl-5-(imidazo[1,2-a]pyridin-8-yl)pyridin-2-amine] registered a melting point of 95 to 135 °C. The same compound came in with an IC50 in data set [1] of more than 1000 nM.

On to `Cn1cc(-c2ccc(N)nc2N)c2ccccc21` [Example 16, 3-(1-Methylindol-3-yl)pyridine-2,6-diamine], for which the melting point fell in the range of 47 to 55 °C. For the same compound, in data set [1], the IC50 was more than 1000 nM.

The compound `Cl.Nc1ccc(-c2c(F)cc(F)c3cc(F)cnc23)c(N)n1` [Example 61, 3-(3,5,7-trifluoroquinolin-8-yl)pyridine-2,6-diamine] registered a melting point of more than 250 °C. This compound also yielded an IC50 in data set [1] of less than 100 nM.

Take `CCc1nc(N)ccc1-c1cccc2ccc(N)nc12.Cl.Cl` [Example 92, 8-(6-amino-2-ethylpyridin-3-yl)quinolin-2-amine]: the melting point was 200 to 250 °C. For the same compound, the IC50 in data set [1] is 100 to 1000 nM.

`CCc1nc(N)ccc1-c1cccc2cc3c(nc12)CCCC3.Cl` [Example 113, 6-ethyl-5-(5,6,7,8-tetrahydroacridin-4-yl)pyridin-2-amine]: the melting point lay in the range of 160 to 172 °C. Further, the IC50 in data set [1] is less than 100 nM.

For the compound `CCc1nc(N)ccc1-c1c(F)ccc2ccc(N3CCCCCC3)nc12.Cl` [Example 137, 5-(2-(azepan-1-yl)-7-fluoroquinolin-8-yl)-6-ethylpyridin-2-amine], the melting point was 110 to 145 °C. The IC50 in data set [1] is less than 100 nM.

The compound `Cl.Nc1ccc(-c2c(F)ccc3cccnc23)c(N)n1` [Example 57, 3-(7-fluoroquinolin-8-yl)pyridine-2,6-diamine] yielded a melting point of 190 to 220 °C. Also, the IC50 in data set [1] was less than 100 nM.

`CCc1nc(N)ccc1-c1cccc2ccc(C3CCCCC3)nc12.Cl` [Example 118, 5-(2-cyclohexylquinolin-8-yl)-6-ethylpyridin-2-amine] displayed a melting point of 137 to 142 °C. In data set [1], this compound registered an IC50 of less than 100 nM.

Compound `CCc1nc(N)ccc1-c1ccccc1-c1ccc(C(F)(F)F)nc1.Cl` [Example 81, 6-ethyl-5-(2-(6-(trifluoromethyl)pyridin-3-yl)phenyl)pyridin-2-amine] returned a melting point of more than 250 °C. In data set [1], this compound displayed an IC50 of 100 to 1000 nM.

`CCc1nc(N)ccc1-c1cccc2ccc(N3CCC(F)(F)CC3)nc12.Cl` [Example 132, 5-(2-(4,4-difluoropiperidin-1-yl)quinolin-8-yl)-6-ethylpyridin-2-amine]: the melting point lay in the range of 120 to 141 °C. Further, in data set [1], the IC50 is less than 100 nM.

The compound `CC(C)c1nc(N)ccc1-c1cccc2ccncc12.Cl` [Example 12, 6-Isopropyl-5-(8-isoquinolyl)pyridin-2-amine] returned a melting point of more than 250 °C. Also, the IC50 in data set [1] lay in the range of 100 to 1000 nM.

In turn, `CCc1nc(N)ccc1-c1cccc2ccc(-c3cnoc3)nc12` [Example 125, 6-ethyl-5-(2-(isoxazol-4-yl)quinolin-8-yl)pyridin-2-amine] displayed a melting point of 178 to 182 °C. Moreover, in data set [1], the IC50 is less than 100 nM.

Regarding `Nc1ccc(-c2cnn3ccccc23)c(N)n1` [Example 19, 3-Pyrazolo[1,5-a]pyridin-3-ylpyridine-2,6-diamine], the melting point was 195 to 200 °C. The compound also came in with an IC50 in data set [1] of more than 1000 nM.

For `CCc1nc(N)ccc1-c1ccccc1-c1ccc(F)nc1.Cl` [Example 87, 6-ethyl-5-(2-(6-fluoropyridin-3-yl)phenyl)pyridin-2-amine], the melting point was more than 250 °C. Besides, the IC50 in data set [1] was in the range of 100 to 1000 nM.

The compound `CCc1nc(N)ccc1-c1cc(F)cc2cccnc12.Cl` [Example 74, 6-ethyl-5-(6-fluoroquinolin-8-yl)pyridin-2-amine] showed a melting point of 50 to 56 °C. Further, the IC50 in data set [1] was less than 100 nM.

Consider `CCc1nc(N)ccc1-c1cccc2ccc(-c3ccccn3)nc12.Cl` [Example 119, 6-ethyl-5-(2-(pyridin-2-yl)quinolin-8-yl)pyridin-2-amine], for which the melting point lay within 111 to 116 °C. Besides, in data set [1], the IC50 is less than 100 nM.

`CCCc1nc(N)ccc1-c1csc2ccccc12.Cl` [Example 7, 5-Benzo[b]thiophen-3-yl-6-propyl-pyridin-2-ylamine] registered a melting point of 175 to 190 °C. The compound also registered an IC50 in data set [1] of 100 to 1000 nM.

Consider `CCc1nc(N)ccc1-c1csc2cc(OC)ccc12` [Example 5, 6-Ethyl-5-(6-methoxybenzothiophen-3-yl)pyridin-2-amine], for which the melting point was in the range of 151 to 155 °C. In data set [1], the IC50 is more than 1000 nM.

For `Cl.Nc1ccc(-c2cccc3cccnc23)c(C2CC2)n1` [Example 14, 6-Cyclopropyl-5-(8-quinolyl)pyridin-2-amine], the melting point was more than 250 °C. Moreover, the IC50 in data set [1] fell in the range of 100 to 1000 nM.

In turn, `CCc1nc(N)ccc1-c1c(C)ccc2cccnc12.Cl` [Example 93, 6-ethyl-5-(7-methylquinolin-8-yl)pyridin-2-amine] gave a melting point of 90 to 130 °C. In data set [1], this compound displayed an IC50 of less than 100 nM.

`Cl.Nc1ccc(-c2c(F)ccc3cccnc23)c(CC2CC2)n1` [Example 72, 6-(cyclopropylmethyl)-5-(7-fluoroquinolin-8-yl)pyridin-2-amine] gave a melting point of 170 to 207 °C. In data set [1], the IC50 is less than 100 nM.

`CCc1nc(N)ccc1-c1cccc2ccc(N3CCCOCC3)nc12.Cl` [Example 133, 5-(2-(1,4-oxazepan-4-yl)quinolin-8-yl)-6-ethylpyridin-2-amine]: the melting point lay within 50 to 90 °C. This compound came in with an IC50 in data set [1] of less than 100 nM.

Regarding `CCc1nc(N)ccc1-c1cccc2ccc(-c3cnccc3C)nc12.Cl` [Example 127, 6-ethyl-5-(2-(4-methylpyridin-3-yl)quinolin-8-yl)pyridin-2-amine], the melting point lay in the range of 180 to 188 °C. This compound also had an IC50 in data set [1] of less than 100 nM.

`CCc1nc(N)ccc1-c1c(F)c(F)cc2ccc(O)nc12.Cl` [Example 161, 8-(6-amino-2-ethylpyridin-3-yl)-6,7-difluoroquinolin-2(1H)-one] had a melting point of more than 250 °C. Also, in data set [1], the IC50 was 100 to 1000 nM.

Consider `CCc1nc(N)ccc1-c1c(OC)ccc2cccnc12.Cl` [Example 98, 6-ethyl-5-(7-methoxyquinolin-8-yl)pyridin-2-amine], for which the melting point fell in the range of 230 to 250 °C. In data set [1], this compound gave an IC50 of less than 100 nM.

As to `Cl.Nc1ccc(-c2cccc3sccc23)c(N)n1` [Example 51, 3-(benzo[b]thiophen-4-yl)pyridine-2,6-diamine], the melting point lay within 100 to 120 °C. The same compound had a 50% inhibitory concentration (IC50) in data set [1] of less than 100 nM.

In turn, `CCc1nc(N)ccc1-c1cccc2c1NC(=O)CC2.Cl` [Example 155, 8-(6-amino-2-ethylpyridin-3-yl)-3,4-dihydroquinolin-2(1H)-one] yielded a melting point of 233 to 237 °C. Moreover, the IC50 in data set [1] was 100 to 1000 nM.

Consider `CCc1nc(N)ccc1-c1cccc2ccc(C(=O)N(CC)C3CCCCC3)nc12.Cl` [Example 168, 8-(6-amino-2-ethylpyridin-3-yl)-N-cyclohexyl-N-ethylquinoline-2-carboxamide], for which the melting point is 142 to 148 °C. The compound also gave an IC50 in data set [1] of less than 100 nM.

Compound `CCCc1nc(N)ccc1-c1cccc2cccnc12.Cl` [Example 8, 6-Propyl-5-(8-quinolyl)pyridin-2-amine] yielded a melting point of 80 to 120 °C. The half-maximal inhibitory concentration (IC50) in data set [1] is less than 100 nM.

In turn, `Cn1ccc2cccc(-c3ccc(N)nc3N)c21` [Example 49, 3-(1-methyl-1H-indol-7-yl)pyridine-2,6-diamine] displayed a melting point of 100 to 117 °C. This compound also came in with an IC50 in data set [1] of less than 100 nM.

`Cl.Nc1ccc(-c2ccccc2-c2ccc(N3CCOCC3)nc2)c(N)n1` [Example 46, 3-[2-(6-morpholino-3-pyridyl)phenyl]pyridine-2,6-diamine] came in with a melting point of 180 to 210 °C. Further, the IC50 in data set [1] is less than 100 nM.

On to `CCc1nc(N)ccc1-c1cccc2ccc(-c3ccc4nccn4c3)nc12.Cl` [Example 123, 6-ethyl-5-(2-(imidazo[1,2-a]pyridin-6-yl)quinolin-8-yl)pyridin-2-amine], for which the melting point was 70 to 75 °C. In addition, the IC50 in data set [1] was less than 100 nM.

`Cl.Nc1ccc(-c2cccc3ccncc23)c(C2CC2)n1` [Example 15, 6-Cyclopropyl-5-(8-isoquinolyl)pyridin-2-amine] had a melting point of 200 to 215 °C. Also, in data set [1], the IC50 fell in the range of 100 to 1000 nM.

For the compound `CCc1nc(N)ccc1-c1ccc(F)cc1-c1ccc(N2CCOCC2)nc1.Cl` [Example 82, 6-ethyl-5-(4-fluoro-2-(6-morpholinopyridin-3-yl)phenyl)pyridin-2-amine], the melting point was 54 to 70 °C. Besides, the IC50 in data set [1] lay in the range of 100 to 1000 nM.

`CCc1nc(N)ccc1-c1cccc2c1OCCC2.Cl` [Example 66, 5-(chroman-8-yl)-6-ethylpyridin-2-amine] returned a melting point of 180 to 192 °C. This compound also came in with an IC50 in data set [1] of less than 100 nM.

In the case of `Cl.Nc1ccc(-c2cccc3cccnc23)c(F)n1` [Example 2, 6-Fluoro-5-quinolin-8-yl-pyridin-2-ylamine], the melting point is more than 250 °C. This compound also returned an IC50 in data set [1] of more than 1000 nM.
